# Activity calls are given as the source filed them. The calls are words filed in the database; no cut-off is given here.
# Key:
# [1] = target: T1, Hepatic sodium/bile acid cotransporter (Homo sapiens, UniProt Q14973); experiment: Inhibition of human NTCP-mediated [3H]-TCA uptake expressed in human HepG2 cells at 3.3 uM incubated for 10 mins by liquid scintillation counter analysis; type: cell-based; details: hepg2, 10 min
# T1 sequence (Q14973 whole entry): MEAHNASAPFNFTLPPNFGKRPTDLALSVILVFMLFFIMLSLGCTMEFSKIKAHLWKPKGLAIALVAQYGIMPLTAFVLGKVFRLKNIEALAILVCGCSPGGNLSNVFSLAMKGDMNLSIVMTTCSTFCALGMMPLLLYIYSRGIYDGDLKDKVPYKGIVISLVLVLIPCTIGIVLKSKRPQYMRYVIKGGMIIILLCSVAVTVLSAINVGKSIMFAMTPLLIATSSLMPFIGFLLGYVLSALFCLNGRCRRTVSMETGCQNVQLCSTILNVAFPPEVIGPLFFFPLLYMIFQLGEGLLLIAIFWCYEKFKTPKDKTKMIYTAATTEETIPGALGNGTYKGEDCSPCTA
# Hepatitis B virus [2] = experiment: Antiviral activity against HBV infected in human HepG2-NTCP cells assessed as reduction in HBeAg secretion at 1 to 10 uM incubated for 24 hrs followed by replacement with fresh medium and measured at day 5 post infection by ELISA; type: functional, organism-based; details: dose 1-10 µM
# Hepatitis B virus [3] = experiment: Antiviral activity against HBV infected in human HepG2-NTCP cells assessed as reduction in HBeAg secretion measured at day 7 post infection by ELISA; type: functional, organism-based; details: HepG2, 168 h
# Hepatitis delta virus [4] = experiment: (§1) Antiviral activity against HDV infected in human HepG2-NTCP cells assessed as reduction in intranuclear accumulation of HDV delta antigen at 10 uM incubated for 24 hrs followed by replacement with fresh medium and measured at day 5 post infection by DAPI staining based confocal microscopic analysis (reference value: 12.1 %); type: functional; set-up: scale not given: the % may be the effect or the level left
# Hepatitis delta virus [5] = experiment: as §1, with “5” for “10”; type: functional; set-up: scale not given: the % may be the effect or the level left
# Hepatitis B virus [6] = experiment: Antiviral activity against HBV infected in human HepG2-NTCP cells assessed as reduction in HBeAg secretion at 111 to 1000 nM incubated for 24 hrs followed by replacement with fresh medium and measured at day 5 post infection by ELISA; type: functional, organism-based; details: dose 111-1000 nM
# HepG2 [7] = experiment: Inhibition of tree shrew NTCP-mediated [3H]-TCA uptake expressed in human HepG2 cells; type: cell-based; details: Scandentia
# Hepatitis B virus [8] = experiment: Antiviral activity against HBV infected in human HepG2-NTCP cells assessed as reduction in intracellular accumulation of HBsAg at 1 uM by immunostaining based fluorescence microscopic analysis; type: functional, organism-based
# Hepatitis B virus [9] = experiment: Antiviral activity against HBV infected in human HepG2-NTCP cells assessed as reduction in intracellular accumulation of HBcAg at 1 uM by immunostaining based fluorescence microscopic analysis; type: functional, organism-based
# Hepatitis B virus [10] = experiment: Antiviral activity against HBV infected in human HepG2-NTCP cells assessed as reduction in intracellular HBV RNA level at 1 uM by qPCR analysis; type: functional, organism-based
# HepG2 [11] = experiment: Effect on NTCP surface expression in human HepG2-NTCP cells assessed as reduction in NTCP surface expression level after 2 hrs by immunostaining based assay; type: functional, cell-based
# Hepatitis B virus [12] = experiment: Antiviral activity against HBV infected in human HepG2-NTCP cells assessed as reduction in HBeAg secretion incubated for 24 hrs followed replacement with fresh medium and measured at day 5 post infection by ELISA; type: functional, organism-based
# HepG2 [13] = experiment: Inhibition of monkey NTCP-mediated [3H]-TCA uptake expressed in human HepG2 cells; type: cell-based; details: Macaca mulatta
# [14] = target: T2, Solute carrier organic anion transporter family member 1B1 (Homo sapiens, UniProt Q9Y6L6); experiment: Inhibition of human OATP1B1-mediated [3H]-Estrone sulfate uptake expressed in human HepG2 cells at 2 uM; type: cell-based; details: hepg2, 2 µM
# T2 sequence (Q9Y6L6 whole entry): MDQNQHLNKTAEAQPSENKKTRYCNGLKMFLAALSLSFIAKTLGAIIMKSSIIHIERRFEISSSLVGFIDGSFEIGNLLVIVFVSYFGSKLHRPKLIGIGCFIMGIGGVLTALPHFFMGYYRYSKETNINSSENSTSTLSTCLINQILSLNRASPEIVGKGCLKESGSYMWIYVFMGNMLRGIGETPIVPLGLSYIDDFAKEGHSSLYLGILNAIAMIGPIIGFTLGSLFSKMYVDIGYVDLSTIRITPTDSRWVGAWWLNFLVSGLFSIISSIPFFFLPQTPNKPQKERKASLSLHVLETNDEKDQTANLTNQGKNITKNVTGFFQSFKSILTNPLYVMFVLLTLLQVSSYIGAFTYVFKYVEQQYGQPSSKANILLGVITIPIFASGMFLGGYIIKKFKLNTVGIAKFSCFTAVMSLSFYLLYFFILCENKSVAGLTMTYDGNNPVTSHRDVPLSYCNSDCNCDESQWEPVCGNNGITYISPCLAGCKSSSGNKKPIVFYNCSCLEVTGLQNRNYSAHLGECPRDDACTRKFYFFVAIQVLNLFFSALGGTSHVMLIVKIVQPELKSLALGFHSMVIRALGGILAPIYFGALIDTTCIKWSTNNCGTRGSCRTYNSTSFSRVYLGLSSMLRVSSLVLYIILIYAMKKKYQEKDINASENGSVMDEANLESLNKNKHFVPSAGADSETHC
# HepG2 [15] = experiment: Inhibition of monkey NTCP-mediated NQL-064 uptake expressed in human HepG2 cells; type: cell-based; details: Macaca mulatta
# [16] = target: T1, Hepatic sodium/bile acid cotransporter; experiment: Inhibition of human NTCP-mediated NQL-064 uptake expressed in human HepG2 cells; type: cell-based
# [17] = target: T3, Hepatic sodium/bile acid cotransporter (Mus musculus, UniProt O08705); experiment: Inhibition of mouse NTCP-mediated [3H]-TCA uptake expressed in human HepG2 cells; type: cell-based
# T3 sequence (O08705 whole entry): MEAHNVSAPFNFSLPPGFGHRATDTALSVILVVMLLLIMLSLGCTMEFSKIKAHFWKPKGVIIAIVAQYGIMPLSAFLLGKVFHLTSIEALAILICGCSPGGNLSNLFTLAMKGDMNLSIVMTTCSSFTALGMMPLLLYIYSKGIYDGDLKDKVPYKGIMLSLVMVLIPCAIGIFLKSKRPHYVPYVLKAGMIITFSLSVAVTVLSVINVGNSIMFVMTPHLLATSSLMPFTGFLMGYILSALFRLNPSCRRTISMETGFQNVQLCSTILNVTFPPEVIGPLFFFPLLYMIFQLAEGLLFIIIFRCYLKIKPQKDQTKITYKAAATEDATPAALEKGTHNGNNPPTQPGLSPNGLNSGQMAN
# HepG2 [18] = experiment: Cytotoxicity against human HepG2 cells expressing NTCP assessed as reduction in cell viability at 10 uM after 48 hrs by alamar blue assay; type: cell-based; details: hepg2, 48 h
# Hepatitis B virus [19] = experiment: Antiviral activity against HBV infected in human HepG2-NTCP cells assessed as reduction in HBeAg secretion at 1 uM pre-infected with virus followed by compound addition by ELISA; type: functional, organism-based
# [20] = target: T1, Hepatic sodium/bile acid cotransporter; experiment: Inhibition of human NTCP-mediated [3H]-TCA uptake expressed in human HepG2 cells at 2 uM; type: cell-based; details: hepg2, 2 µM
# Hepatitis B virus [21] = experiment: Antiviral activity against HBV infected in human HepG2-NTCP cells assessed as reduction in HBeAg secretion at 1 uM preincubated with compound followed by viral infection by ELISA; type: functional, organism-based
# [22] = target: T1, Hepatic sodium/bile acid cotransporter; experiment: Inhibition of human NTCP-mediated [3H]-TCA uptake expressed in human HepG2 cells; type: cell-based; details: human, hepg2
# [23] = target: T3, Hepatic sodium/bile acid cotransporter; experiment: Inhibition of mouse NTCP-mediated NQL-064 uptake expressed in human HepG2 cells; type: cell-based
# Hepatocyte = experiment: Cytotoxicity against primary tupaia hepatocytes expressing NTCP assessed as reduction in cell viability at 100 uM after 48 hrs by Cell-Titer Glo assay; type: cell-based; details: scandentia
# HepG2 [24] = experiment: Inhibition of tree shrew NTCP-mediated NQ-064 uptake expressed in human HepG2 cells; type: cell-based; details: Scandentia
# Hepatitis B virus [25] = experiment: Antiviral activity against HBV infected in human HepG2-NTCP cells assessed as reduction in HBeAg secretion at 1 uM compound added along with viral infection by ELISA; type: functional, organism-based
# [26] = target: T1, Hepatic sodium/bile acid cotransporter; experiment: Inhibition of FITC-labeled HBV Pre-S1 polypeptide binding to human NTCP expressed in HepG2 cells after 2 to 3 hrs by confocal microscopic analysis; type: cell-based; details: time 2-3 hrs
# [27] = target: T4, Ileal sodium/bile acid cotransporter (Homo sapiens, UniProt Q12908); experiment: Inhibition of human ASBT-mediated [3H]-TCA uptake expressed in human HepG2 cells at 2 uM; type: cell-based; details: hepg2, 2 µM
# T4 sequence (Q12908 whole entry): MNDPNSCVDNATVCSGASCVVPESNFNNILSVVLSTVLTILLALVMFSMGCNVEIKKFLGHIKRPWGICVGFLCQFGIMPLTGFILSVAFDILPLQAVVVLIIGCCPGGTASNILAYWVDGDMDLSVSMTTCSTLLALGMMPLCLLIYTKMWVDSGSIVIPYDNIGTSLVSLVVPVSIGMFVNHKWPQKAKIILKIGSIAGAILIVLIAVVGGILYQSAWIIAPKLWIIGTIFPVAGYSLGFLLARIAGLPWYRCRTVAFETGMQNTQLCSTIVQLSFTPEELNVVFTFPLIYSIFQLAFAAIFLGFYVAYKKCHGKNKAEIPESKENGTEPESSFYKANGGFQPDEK
# [28] = target: T1, Hepatic sodium/bile acid cotransporter; experiment: Inhibition of human NTCP-mediated [3H]-Estrone sulfate uptake expressed in human HepG2 cells at 2 uM; type: cell-based; details: hepg2, 2 µM
# Hepatitis B virus [29] = experiment: Antiviral activity against HBV infected in human HepG2-NTCP cells assessed as reduction in HBeAg secretion preincubated for 2 hrs followed by viral infection by ELISA; type: functional, organism-based
# [30] = target: T1, Hepatic sodium/bile acid cotransporter; experiment: Inhibition of human NTCP-mediated [3H]-TCA uptake expressed in human HepG2 cells in presence of 20 % FBS; type: cell-based
# [31] = Stability in mouse liver microsomes assessed as half life at 1 uM preincubated for 5 mins followed by NADPH addition and measured upto 60 mins by LC-MS analysis; type: ADME, Microsome; details: time 65 min
# [32] = target: T1, Hepatic sodium/bile acid cotransporter; experiment: Inhibition of human NTCP-mediated [3H]-TCA uptake expressed in human HepG2 cells pretreated for 2 hrs followed by [3H]-TCA addition in absence of FBS; type: cell-based
# [33] = Stability in mouse liver microsomes assessed as intrinsic clearance at 1 uM preincubated for 5 mins followed by NADPH addition and measured upto 60 mins by LC-MS analysis; type: ADME, Microsome; details: time 65 min, read-out: CLH
# [34] = target: T1, Hepatic sodium/bile acid cotransporter; experiment: Inhibition of human NTCP-mediated [3H]-TCA uptake expressed in human HepG2 cells in presence of 50 % FBS; type: cell-based
compound,measurement,setting,value
C[C@H](CCC(=O)NCCS(=O)(=O)O)[C@H]1CC[C@H]2[C@@H]3[C@@H](O)C[C@@H]4C[C@H](O)CC[C@]4(C)[C@H]3CC[C@]12C [TAURURSODIOL],inhibition (INH),[1],Not Active
same,Activity,Hepatitis B virus [2],inactive
same,IC50,Hepatitis B virus [3],3000 nM
same,Activity,Hepatitis delta virus [4],7.1%
C[C@H](CCC(=O)NCCS(=O)(=O)O)[C@H]1CC[C@H]2[C@@H]3[C@@H](O)C[C@@H]4C[C@H](OCc5cn([C@@H]6CC[C@@]7(C)[C@@H](C6)C[C@H](O)[C@@H]6[C@@H]7CC[C@]7(C)[C@@H]([C@H](C)CCC(=O)NCCS(=O)(=O)O)CC[C@@H]67)nn5)CC[C@]4(C)[C@H]3CC[C@]12C,Activity,Hepatitis delta virus [5],1.8%
same,Activity,Hepatitis B virus [6],Active
same,inhibition,HepG2 [7],inactive
same,Activity,Hepatitis B virus [8],Active
same,Activity,Hepatitis B virus [9],Active
same,Activity,Hepatitis B virus [10],Active
same,Activity,HepG2 [11],inactive
same,IC50,Hepatitis B virus [12],12 nM
same,inhibition,HepG2 [13],inactive
same,inhibition (INH),[14],Not Active
same,inhibition,HepG2 [15],inactive
same,inhibition (INH),[16],Active
same,inhibition (INH),[17],Not Active
same,Activity,HepG2 [18],Non-Toxic
same,Activity,Hepatitis B virus [19],inactive
same,inhibition (INH),[20],Active
same,Activity,Hepatitis B virus [21],Active
same,inhibition (INH),[22],Active
same,inhibition (INH),[23],Not Active
same,Activity,Hepatocyte,Non-Toxic
same,inhibition,HepG2 [24],inactive
same,Activity,Hepatitis B virus [25],Active
same,inhibition (INH),[26],Active
same,inhibition (INH),[27],Not Active
same,inhibition (INH),[28],Active
same,Activity,Hepatitis B virus [29],inactive
C[C@H](CCc1cn([C@@H]2CC[C@@]3(C)[C@@H](C2)C[C@H](O)[C@@H]2[C@@H]3CC[C@]3(C)[C@@H]([C@H](C)CCC(=O)NCCS(=O)(=O)O)CC[C@@H]23)nn1)[C@H]1CC[C@H]2[C@@H]3[C@@H](O)C[C@@H]4C[C@H](O)CC[C@]4(C)[C@H]3CC[C@]12C,IC50,[30],> 10000 nM
same,half-life at 1 µM,[31],12.6 min
same,IC50,Hepatitis B virus [12],24 nM
same,IC50,[32],24.5 nM
same,microsomal CLint at 1 µM,[33],55.2 µL/min/mg
same,IC50,[34],> 10000 nM
CC(=O)O[C@@H]1CC[C@@]2(C)[C@@H](C1)C[C@H](O)[C@@H]1[C@@H]2CC[C@]2(C)[C@@H]([C@H](C)CCC(=O)NCCS(=O)(=O)O)CC[C@@H]12,inhibition (INH),[1],Not Active
same,Activity,Hepatitis B virus [2],inactive
